According to the supplement of paper PMC10307832:

What was measured:
Assay in all cases: relative viability (nuclei count vs DMSO), 5 days (fraction); higher = more cells survive
201T = tested on: 201T
Outline: (§1)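 Medians of duplicate plates are given as relative viability. That measure is the nuclei count in treated wells divided by the count in vehicle wells. Counts were taken on 4× images of lung cancer cell lines in 1536-well plates, 5 days after pin-tool dosing the day after seeding with one drug alone or a fixed anchor-drug dose plus five library-drug doses (not always all listed) in √10 steps.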

BEN = tested on: BEN
Outline: as §1

COR-L 105 = tested on: COR-L 105
Outline: as §1

EMC-BAC-2 = tested on: EMC-BAC-2
Outline: as §1

H3255 = tested on: H3255
Outline: as §1

HARA = tested on: HARA
Outline: as §1

HOP-62 = tested on: HOP-62
Outline: as §1

LC-2-ad = tested on: LC-2-ad
Outline: as §1

LOU-NH91 = tested on: LOU-NH91
Outline: as §1

LU99A = tested on: LU99A
Outline: as §1

LXF-289 = tested on: LXF-289
Outline: as §1

NCI-H1395 = tested on: NCI-H1395
Outline: as §1

NCI-H1563 = tested on: NCI-H1563
Outline: as §1

NCI-H1993 = tested on: NCI-H1993
Outline: as §1

NCI-H2087 = tested on: NCI-H2087
Outline: as §1

NCI-H2126 = tested on: NCI-H2126
Outline: as §1

NCI-H2170 = tested on: NCI-H2170
Outline: as §1

NCI-H650 = tested on: NCI-H650
Outline: as §1

RERF-LC-KJ = tested on: RERF-LC-KJ
Outline: as §1

SK-MES-1 = tested on: SK-MES-1
Outline: as §1

SW 900 = tested on: SW 900
Outline: as §1

UMC-11 = tested on: UMC-11
Outline: as §1

CN1CCN(CCOc2cc(OC3CCOCC3)c3c(Nc4c(Cl)ccc5c4OCO5)ncnc3c2)CC1 [Saracatinib] + CCNC(=O)c1noc(-c2cc(C(C)C)c(O)cc2O)c1-c1ccc(CN2CCOCC2)cc1 [Luminespib] (partner 0.01 µM)
relative viability (201T; first compound 0.02 µM): 1.05 | relative viability (201T; first compound 0.2 µM): 0.956 | relative viability (201T; first compound 0.6325 µM): 0.965 | relative viability (201T; first compound 2 µM): 0.832 | relative viability (BEN; first compound 0.02 µM): 0.421 | relative viability (BEN; first compound 0.6325 µM): 0.418 | relative viability (BEN; first compound 2 µM): 0.401 | relative viability (COR-L 105; first compound 0.02 µM): 0.893 | relative viability (COR-L 105; first compound 0.2 µM): 0.692 | relative viability (COR-L 105; first compound 0.6325 µM): 0.608 | relative viability (COR-L 105; first compound 2 µM): 0.467 | relative viability (EMC-BAC-2; first compound 0.02 µM): 1.21 | relative viability (EMC-BAC-2; first compound 0.2 µM): 0.894 | relative viability (EMC-BAC-2; first compound 0.6325 µM): 1.16 | relative viability (EMC-BAC-2; first compound 2 µM): 0.978 | relative viability (H3255; first compound 0.02 µM): 0.91 | relative viability (H3255; first compound 0.2 µM): 0.914 | relative viability (H3255; first compound 0.6325 µM): 0.745 | relative viability (H3255; first compound 2 µM): 0.477 | relative viability (HARA; first compound 0.02 µM): 0.686 | relative viability (HARA; first compound 0.2 µM): 0.606 | relative viability (HARA; first compound 0.6325 µM): 0.485 | relative viability (HARA; first compound 2 µM): 0.367 | relative viability (HOP-62; first compound 0.02 µM): 0.864 | relative viability (HOP-62; first compound 0.2 µM): 0.852 | relative viability (HOP-62; first compound 0.6325 µM): 1.04 | relative viability (HOP-62; first compound 2 µM): 1.02 | relative viability (LC-2-ad; first compound 0.02 µM): 0.985 | relative viability (LC-2-ad; first compound 0.2 µM): 0.912 | relative viability (LC-2-ad; first compound 0.6325 µM): 1.1 | relative viability (LC-2-ad; first compound 2 µM): 0.949 | relative viability (LOU-NH91; first compound 0.02 µM): 0.356 | relative viability (LOU-NH91; first compound 0.2 µM): 0.29 | relative viability (LOU-NH91; first compound 0.6325 µM): 0.385 | relative viability (LOU-NH91; first compound 2 µM): 0.286 | relative viability (LU99A; first compound 0.02 µM): 0.214 | relative viability (LU99A; first compound 0.2 µM): 0.203 | relative viability (LU99A; first compound 0.6325 µM): 0.26 | relative viability (LU99A; first compound 2 µM): 0.232 | relative viability (LXF-289; first compound 0.02 µM): 0.619 | relative viability (LXF-289; first compound 0.2 µM): 0.633 | relative viability (LXF-289; first compound 0.6325 µM): 0.796 | relative viability (LXF-289; first compound 2 µM): 0.585 | relative viability (NCI-H1395; first compound 0.02 µM): 0.621 | relative viability (NCI-H1395; first compound 0.2 µM): 0.634 | relative viability (NCI-H1395; first compound 0.6325 µM): 0.79 | relative viability (NCI-H1395; first compound 2 µM): 0.62 | relative viability (NCI-H1563; first compound 0.02 µM): 0.481 | relative viability (NCI-H1563; first compound 0.2 µM): 0.488 | relative viability (NCI-H1563; first compound 0.6325 µM): 0.537 | relative viability (NCI-H1563; first compound 2 µM): 0.525 | relative viability (NCI-H1993; first compound 0.02 µM): 0.907 | relative viability (NCI-H1993; first compound 0.2 µM): 0.716 | relative viability (NCI-H1993; first compound 0.6325 µM): 0.783 | relative viability (NCI-H1993; first compound 2 µM): 0.561 | relative viability (NCI-H2087; first compound 0.02 µM): 0.143 | relative viability (NCI-H2087; first compound 0.2 µM): 0.18 | relative viability (NCI-H2087; first compound 0.6325 µM): 0.166 | relative viability (NCI-H2087; first compound 2 µM): 0.253 | relative viability (NCI-H2126; first compound 0.02 µM): 0.878 | relative viability (NCI-H2126; first compound 0.2 µM): 0.895 | relative viability (NCI-H2126; first compound 0.6325 µM): 0.852 | relative viability (NCI-H2126; first compound 2 µM): 0.655 | relative viability (NCI-H2170; first compound 0.02 µM): 0.658 | relative viability (NCI-H2170; first compound 0.2 µM): 0.596 | relative viability (NCI-H2170; first compound 0.6325 µM): 0.477 | relative viability (NCI-H2170; first compound 2 µM): 0.337 | relative viability (NCI-H650; first compound 0.02 µM): 0.685 | relative viability (NCI-H650; first compound 0.2 µM): 0.613 | relative viability (NCI-H650; first compound 0.6325 µM): 0.87 | relative viability (NCI-H650; first compound 2 µM): 0.68 | relative viability (RERF-LC-KJ; first compound 0.02 µM): 1.27 | relative viability (RERF-LC-KJ; first compound 0.2 µM): 1.38 | relative viability (RERF-LC-KJ; first compound 0.6325 µM): 1.29 | relative viability (RERF-LC-KJ; first compound 2 µM): 1.16 | relative viability (SK-MES-1; first compound 0.02 µM): 0.627 | relative viability (SK-MES-1; first compound 0.2 µM): 0.828 | relative viability (SK-MES-1; first compound 0.6325 µM): 0.348 | relative viability (SK-MES-1; first compound 2 µM): 0.207 | relative viability (SW 900; first compound 0.02 µM): 0.187 | relative viability (SW 900; first compound 0.2 µM): 0.152 | relative viability (SW 900; first compound 0.6325 µM): 0.176 | relative viability (SW 900; first compound 2 µM): 0.151 | relative viability (UMC-11; first compound 0.02 µM): 0.96 | relative viability (UMC-11; first compound 0.6325 µM): 0.863 | relative viability (UMC-11; first compound 2 µM): 0.624
